Results published in patent US20240024317A1, “CANCER TREATMENT USING BOSENTAN IN COMBINATION WITH A CHECKPOINT INHIBITOR” (Materia Therapeutics Inc., priority 2020, published 2024).

Assays:
[1] = tested on: E0771 tumors; experiment: Extracellular matrix staining (Picro Sirius red collagen, HABP immunofluorescence); type: in vivo, mice
Method: Mice bearing syngeneic, orthotopic triple negative breast cancer (TNBC) were treated with a range of sub-therapeutic doses of bosentan, from 0.2 mg/kg to 10 mg/kg of body weight. Orthotopic models for murine mammary tumors were generated by implantation of 5×10^4 4T1 or E0771 cancer cells in 40 μl of serum-free medium into the third mammary fat pad of 6-8-week-old BALB/c and C57BL/6 female mice, respectively. 4T1 (ATCC® CRL-2539TH) and E0771 (94A001, CH3 BioSystems) mouse breast adenocarcinoma cell lines were purchased form ATCC and CH3 BioSystems, respectively. The cells were maintained at 37° C./5% CO2 in Roswell Park Memorial Institute medium (RPMI-1640, LM-R1637, Biosera) supplemented with 10% fetal bovine serum (FBS, FB-1001H, biosera) and 1% antibiotics (A5955, Sigma). Bosentan (bosentan Hydrate (S3051, Selleckchem) was dissolved in ddH2O containing 2% DMSO (GK2245, Glentham Life Science), 30% PEG300 (S6704, Selleckchem) and 2% Tween 80 (S6702, Selleckchem)) 1 mg/kg, 5 mg/kg, 10 mg/kg or equal volume of diluent (control group) was administered by intraperitoneal injection (i.p.) once a day for 10 days, starting from once the tumor volumes reached an average size of 100 mm^3. Tumors were excised when they reached an average size of 500 mm^3. Tissue stiffness was then measured non-invasively and longitudinally using ultrasound elastography. […]

[2] = tested on: spontaneous 4T1 metastases; experiment: Survival of mice with spontaneous metastases after surgical removal of primary tumors; type: in vivo; conditions: 1 mg/kg bosentan combined with ICB cocktail, n=8-10
Method: (§1) To determine if a stiffness-reducing and hypoxia-reducing (blood flow-increasing) regimen of bosentan could enhance the efficacy of an ICB cocktail of anti-PD-1 (mouse monoclonal anti-PD-1 CD279, clone RMP1-14, BioXCell) and anti-CTLA-4 (mouse monoclonal anti-CTLA-4 CD152, clone 9D9, BioXCell) antibodies, mice bearing primary tumors in a neo-adjuvant setting were administered various treatments. Therapy was administered before removing the primary tumors surgically to assess mice survival against spontaneous metastases that arose on treatment. For the combinatorial treatment with bosentan and Immunotherapy studies, bosentan 1 mg/kg or equal volume of diluent (control group) was administered by intraperitoneal injection (i.p.) once a day for 14 days, starting from once the tumor volumes reached an average size of 5 mm diameter. Immunotherapy was administrated as a cocktail of 10 mg/kg anti-PD-1 (CD279, clone RMP1-14, BioXCell) and 5 mg/kg anti-CTLA-4 (CD152, clone 9D9) following dilution in the recommended InVivoPure pH 7.0 Dilution Buffer (BioXCell). The immunotherapy cocktail was administered i.p. when tumors reached an average size of 200 mm^3 every three days for three doses. For the immunotherapy studies, animals were also treated with a non-targeting isotype control antibody (BioXCell). Primary tumors were excised when they reached an average size of 700 mm^3 and the tissue was sutured for the study of the metastatic tumors. Planar dimensions (x, y) of tumor were monitored every 2-3 days using a digital caliper and tumor volume was estimated from the volume of an ellipsoid and assuming that the third dimension, z, is equal to […]. For the overall survival studies, the ending point was the time to mouse death. […] In the E0771 study, 8 out of 10 mice initiated survived. […] The remaining five mice were rechallenged with a second inoculation of E0771 cells and the tumor growth rates were compared against healthy age-matched control mice.

[3] = tested on: spontaneous E0771 metastases; experiment: as above; type: in vivo
Method: as §1

[4] = tested on: 4T1 tumors; experiment: Primary tumor growth, bosentan plus ICB cocktail, neo-adjuvant setting; type: in vivo, mice; conditions: 1 mg/kg bosentan combined with ICB cocktail (10 mg/kg anti-PD-1, 5 mg/kg anti-CTLA-4); n=8-10
Method: (§2) To determine if a stiffness-reducing and hypoxia-reducing (blood flow-increasing) regimen of bosentan could enhance the efficacy of an ICB cocktail of anti-PD-1 (mouse monoclonal anti-PD-1 CD279, clone RMP1-14, BioXCell) and anti-CTLA-4 (mouse monoclonal anti-CTLA-4 CD152, clone 9D9, BioXCell) antibodies, mice bearing primary tumors in a neo-adjuvant setting were administered various treatments. Therapy was administered before removing the primary tumors surgically to assess mice survival against spontaneous metastases that arose on treatment. For the combinatorial treatment with bosentan and Immunotherapy studies, bosentan 1 mg/kg or equal volume of diluent (control group) was administered by intraperitoneal injection (i.p.) once a day for 14 days, starting from once the tumor volumes reached an average size of 5 mm diameter. Immunotherapy was administrated as a cocktail of 10 mg/kg anti-PD-1 (CD279, clone RMP1-14, BioXCell) and 5 mg/kg anti-CTLA-4 (CD152, clone 9D9) following dilution in the recommended InVivoPure pH 7.0 Dilution Buffer (BioXCell). […] Planar dimensions (x, y) of tumor were monitored every 2-3 days using a digital caliper and tumor volume was estimated from the volume of an ellipsoid and assuming that the third dimension, z, is equal to x y. […]

[5] = tested on: E0771 tumors; experiment: as above; type: in vivo, mice; conditions: 1 mg/kg bosentan combined with ICB cocktail (10 mg/kg anti-PD-1, 5 mg/kg anti-CTLA-4); n=10
Method: as §2

[6] = tested on: E0771 cancer cells; experiment: Rechallenge of surviving mice with a second tumor cell inoculation; type: in vivo
Method: as §2

[7] = tested on: 4T1 tumors; experiment: Whole tumor RT-PCR mRNA expression; type: in vivo, mice

With `COc1ccccc1Oc1c(NS(=O)(=O)c2ccc(C(C)(C)C)cc2)nc(-c2ncccn2)nc1OCCO` [bosentan, 4-tert-butyl-N-[6-(2-hydroxy-ethoxy)-5-(2-methoxy-phenoxy)-2-(pyrimidin-2-yl)pyrimidin-4-yl] benzenesulfonamide] the “collagen levels (Picro Sirius red staining)” value [1] was “reduction of collagen levels”, the “survival, median overall survival (Kaplan-Meier)” value [2] was “potentiated” and the “survival (Kaplan-Meier)” value ([3]; 1 mg/kg bosentan combined with ICB cocktail, E0771) was “potentiated”. For the same compound, the mice surviving ([3]; E0771 study, bosentan combined with ICB cocktail) was 8 out of 10, the “macrometastases in the lungs” value ([3]; three surviving mice sacrificed, bosentan combined with ICB cocktail) was “no evidence of macrometasteses” and the tumor growth [4] was “potentiated tumor growth inhibition”. The tumor growth [5] was “potentiated tumor growth inhibition”, the “mice with tumors appearing after rechallenge” value ([6]; five surviving mice (bosentan plus ICB) rechallenged) was “two out of the five” and the “tumor growth rate after rechallenge” value ([6]; five surviving mice (bosentan plus ICB) versus healthy age-matched control mice) was “grew much slower”. The “T cell activity expression (mRNA)” value [7] was “increased”, the “endothelial adhesion molecule expression (mRNA)” value [7] was “increased” and the “hypoxia related gene-expression (mRNA)” value [7] was “reduced”.
